According to patent US8420778B2, “Tripeptides and derivatives thereof for cosmetic application in order to improve skin structure” (DSM IP Assets B.V., priority 2003, dated 2013):

Tested on: Collagen Type I Synthesis in Fibroblast Cell Cultures
Assay: Collagen stimulation by ELISA: stimulation of collagen type I synthesis in fibroblast cell cultures
Assay type: cell-based
Conditions: human skin fibroblasts, 72 h incubation
Experimental: Type I collagen of in-vitro cultured skin fibroblasts was detected with an ELISA (Enzyme-Linked Immunosorbent Assay). The increase in the collagen production of the cells was quantified in the presence of the peptidic actives by using this method. Human skin fibroblasts were isolated from foreskin and bred in culture medium. After 72 h of incubation with the corresponding peptides (actives) the quantitative determination was performed using an antibody specific for collagen I. [table] The 1st AB (MAB1340; Chemicon) and the 2nd AB (31430; Socochim S.A.) are diluted 1/500 with AB dilution solution. The fibroblasts are incubated until confluent at a density of approx. 5000 cells per well in 96 well-plates in culture medium (37° C./5% CO2) for 3 days. The medium is replaced with test medium with three different concentrations of test substance in triplicate. The following controls are tested on each plate: [table] After incubation of the plates for further 72 hours, the precipitated collagen I is detected and quantified according to the following protocol: • discard medium and wash with 200 μl/well of PBS • fix with 100 μl/well of methanol for 15 min at RT/shaker 600 rpm • discard methanol and block with 200 μl/well of milk solution for 30 min at RT/shaker 600 rpm • discard milk solution and incubate with 100 μl/well of the 1st AB dilution for 2 h at RT/shaker 600 rpm • discard 1st AB dilution and wash 3× with 200 μl/well of washing buffer • incubate with 100 μl/well of the 2nd AB dilution for 3 h at RT/shaker 600 rpm • discard 2nd AB dilution; wash 3× with 200 μl/well of washing buffer and 1× with 100 μl/well of PBS • add 100 μl/well of substrate solution for 20 min at RT/shaker 600 rpm • stop the reaction with 50 μl/well of H2SO4 (2M) and measure at 492 nm.

Substance | % Stimulation (Conc. 25 µmol/L) [%] | % Stimulation (Conc. 50 µmol/L) [%] | also measured
Elaidoyl-Lys-Phe-Lys-OH *2AcOH [Reference compound A, reference compound] | – | – | % Stimulation (Conc. 0.01 µmol/L): 23%; % Stimulation (Conc. 20.0 µmol/L): 43%
Elaidoyl-Lys-Thr-Lys-OH*2TFA [Example 4] | 104 | – | –
H-Lys-Thr-Lys-OH*3TFA [Example 5] | – | 35 | –
H-Lys-Val-Lys-NH-Cetyl*3TFA [Example 7] | – | – | % Stimulation (Conc. 100 µmol/L): 61%
H-Lys-Val-Lys-O-Octyl*3TFA [Example 8] | 31 | – | –
Palm-Lys-Val-Lys-OH *2AcOH [No 4] | – | 48 | –
